# Data reported in ChEMBL document CHEMBL6092167, “Phosphorylation as an Effective Tool to Improve Stability and Reduce Toxicity of Antimicrobial Peptides” (J Med Chem, 2024).
# Activity calls are given as the source filed them. The calls are words filed in the database; no cut-off is given here. Non-standard residues stand in square brackets, D forms with d. Residues, ends and D or L forms follow the SMILES beside them. Bip = N[C@@H](Cc1ccc(-c2ccccc2)cc1)C(=O)O; pY = N[C@@H](Cc1ccc(OP(=O)(O)O)cc1)C(=O)O
# Assays:
# Escherichia coli [1] = assay: Antibiofilm activity against Escherichia coli ATCC 25922 assessed as eradication of preformed biofilms at 2 to 4 times MIC incubated for 24 hrs by crystal violet staining based assay; assay type: functional, organism-based
# Klebsiella pneumoniae [2] = assay: Additive antibacterial activity against Klebsiella pneumoniae ATCC 700603 assessed as fractional inhibitory concentration index at 1/4 to 4 times MIC incubated for 18 to 24 hrs in presence of kanamycin by checkerboard assay; assay type: functional; details: time 18-24 hrs
# Escherichia coli [3] = assay: Antibacterial activity against Escherichia coli 780 incubated for 18 to 24 hrs by broth microdilution method; assay type: functional; details: time 18-24 hrs
# Pseudomonas aeruginosa [4] = assay: Antibacterial activity against Pseudomonas aeruginosa 119 incubated for 18 to 24 hrs by broth microdilution method; assay type: functional; details: time 18-24 hrs
# [5] = Cytotoxicity against HEK293T cells incubated for 1 hr by fluorescence based microplate reader assay; assay type: toxicity, cell-based, HEK-293T; details: human
# [6] = Toxicity in ip dosed BALB/c mouse measured after 14 days; assay type: organism-based; details: in vivo, time 14 day
# Acinetobacter baumannii = assay: Antibacterial activity against Acinetobacter baumannii ATCC 19606 incubated for 18 to 24 hrs by broth microdilution method; assay type: functional; details: time 18-24 hrs
# Staphylococcus aureus [7] = assay: Inhibition of biofilm formation in Staphylococcus aureus ATCC 25923 at 1 time MIC incubated for 24 hrs by crystal violet staining based assay; assay type: functional, organism-based
# Klebsiella pneumoniae [8] = assay: Antibacterial activity against rifampicin resistant Klebsiella pneumoniae; assay type: functional
# Klebsiella pneumoniae [9] = assay: Synergistic antibacterial activity against Klebsiella pneumoniae ATCC 700603 assessed as fractional inhibitory concentration index at 1/4 to 4 times MIC incubated for 18 to 24 hrs in presence of polymyxin B by checkerboard assay; assay type: functional; details: time 18-24 hrs
# Escherichia coli [10] = assay: Antibacterial activity against Escherichia coli 25922 assessed as interaction with LPS by measuring bacterial mortality at 2 times MIC preincubated with LPS for 1 hr followed by bacterial addition and measured after overnight by microplate reader assay; assay type: functional, organism-based
# Klebsiella pneumoniae [11] = assay: Antibiofilm activity against Klebsiella pneumoniae ATCC 700603 assessed as eradication of preformed biofilms incubated for 24 hrs by crystal violet staining based assay; assay type: functional, organism-based
# Cell membrane [12] = assay: Induction of cytoplasmic membrane rupture in Pseudomonas aeruginosa ATCC 27853 assessed as adhesion at 2 times MIC incubated for 30 to 120 mins by SEM analysis; assay type: subcellular; details: time 30-120 min
# Cell membrane [13] = assay: Induction of cytoplasmic membrane rupture in Staphylococcus aureus ATCC 25923 assessed as adhesion at 2 times MIC incubated for 30 to 120 mins by SEM analysis; assay type: subcellular; details: time 30-120 min
# Staphylococcus aureus [14] = assay: Antibacterial activity against methicillin resistant Staphylococcus aureus 48 incubated for 18 to 24 hrs by broth microdilution method; assay type: functional; details: time 18-24 hrs
# Cell membrane [15] = assay: Induction of cytoplasmic membrane rupture in Pseudomonas aeruginosa ATCC 27853 assessed as leakage of cellular content at 2 times MIC incubated for 30 to 120 mins by SEM analysis; assay type: subcellular; details: time 30-120 min
# Cell membrane [16] = assay: Induction of cell membrane disruption in Staphylococcus aureus ATCC 25923 at 2 times MIC incubated for 2 hrs by SEM analysis; assay type: subcellular
# Chymotrypsin = Chymotrypsin (Homo sapiens, UniProt Q99895+P17538+P40313+Q6GPI1); assay: Stability of compound assessed as chymotrypsin (unknown origin) mediated compound degradation; assay type: ADME, protein assay
# Cell membrane [17] = assay: Induction of inner membrane permeabilization in Escherichia coli ML-35 assessed as increase in […] intensity measured every 5 mins for 135 mins by ONPG dye based microplate reader assay; assay type: subcellular
# Klebsiella pneumoniae [18] = assay: Inhibition of rifampicin resistance in Klebsiella pneumoniae ATCC 700603 at 1:1 compound: rifampicin molar ratio measured after 20 generation; assay type: functional, organism-based
# Staphylococcus aureus [19] = assay: Antibacterial activity against methicillin resistant Staphylococcus aureus ATCC 33591 incubated for 18 to 24 hrs by broth microdilution method; assay type: functional; details: time 18-24 hrs
# Klebsiella pneumoniae [20] = assay: Inhibition of kanamycin resistance in Klebsiella pneumoniae ATCC 700603 at 1:1 compound: kanamycin molar ratio measured after 20 generation; assay type: functional, organism-based
# Cell membrane [21] = assay: Induction of cytoplasmic membrane rupture in Pseudomonas aeruginosa ATCC 27853 assessed as wrinkling at 2 times MIC incubated for 30 to 120 mins by SEM analysis; assay type: subcellular; details: time 30-120 min
# Pseudomonas aeruginosa [22] = assay: Inhibition of biofilm formation in Pseudomonas aeruginosa ATCC 27853 incubated for 24 hrs by crystal violet staining based assay; assay type: functional, organism-based
# Staphylococcus aureus [23] = assay: Antibiofilm activity against Staphylococcus aureus ATCC 25923 assessed as eradication of preformed biofilms at 2 to 4 times MIC incubated for 24 hrs by crystal violet staining based assay; assay type: functional, organism-based
# Pseudomonas aeruginosa [24] = assay: Antibiofilm activity against Pseudomonas aeruginosa ATCC 27853 assessed as eradication of preformed biofilms at 4 times MIC incubated for 24 hrs by crystal violet staining based assay; assay type: functional, organism-based
# Klebsiella pneumoniae [25] = assay: Durg resistance development in Klebsiella pneumoniae ATCC 700603 measured after 20 passage; assay type: functional, organism-based
# Escherichia coli [26] = assay: Antibacterial activity against Escherichia coli ATCC 25922 incubated for 18 to 24 hrs by broth microdilution method; assay type: functional; details: time 18-24 hrs
# Klebsiella pneumoniae [27] = assay: Antibiofilm activity against Klebsiella pneumoniae ATCC 700603 assessed as eradication of preformed biofilms at 2 to 4 times MIC incubated for 24 hrs by crystal violet staining based assay; assay type: functional, organism-based
# Klebsiella pneumoniae [28] = assay: Antibacterial activity against kanamycin resistant Klebsiella pneumoniae; assay type: functional
# Pseudomonas aeruginosa [29] = assay: Antibiofilm activity against Pseudomonas aeruginosa ATCC 27853 assessed as eradication of preformed biofilms incubated for 24 hrs by crystal violet staining based assay; assay type: functional, organism-based
# Cell membrane [30] = assay: Induction of inner membrane permeabilization in Escherichia coli ML-35 assessed as increase in […] intensity by ONPG dye based microplate reader assay; assay type: subcellular
# Staphylococcus aureus [31] = assay: Antibacterial activity against Staphylococcus aureus ATCC 25923 incubated for 18 to 24 hrs by broth microdilution method; assay type: functional; details: time 18-24 hrs
# Klebsiella pneumoniae [32] = assay: Additive antibacterial activity against Klebsiella pneumoniae ATCC 700603 assessed as fractional inhibitory concentration index at 1/4 to 4 times MIC incubated for 18 to 24 hrs in presence of ciprofloxacin by checkerboard assay; assay type: functional; details: time 18-24 hrs
# Escherichia coli [33] = assay: Antibacterial activity against Escherichia coli 850 incubated for 18 to 24 hrs by broth microdilution method; assay type: functional; details: time 18-24 hrs
# Klebsiella pneumoniae [34] = assay: Additive antibacterial activity against Klebsiella pneumoniae ATCC 700603 assessed as fractional inhibitory concentration index at 1/4 to 4 times MIC incubated for 18 to 24 hrs in presence of rifampicin by checkerboard assay; assay type: functional; details: time 18-24 hrs
# Staphylococcus aureus [35] = assay: Antibiofilm activity against Staphylococcus aureus ATCC 25923 assessed as eradication of preformed biofilms incubated for 24 hrs by crystal violet staining based assay; assay type: functional, organism-based
# Cell membrane [36] = assay: Induction of cytoplasmic membrane rupture in Pseudomonas aeruginosa ATCC 27853 assessed as blistering at 2 times MIC incubated for 30 to 120 mins by SEM analysis; assay type: subcellular; details: time 30-120 min
# [37] = Hemolytic activity in mouse erythrocyte incubated for 1 hr by microplate reader assay; assay type: toxicity, cell-based
# [38] = Stability in Kunming mouse serum assessed as half life measured upto 24 hrs by RP-HPLC method; assay type: ADME, cell-free
# Klebsiella pneumoniae [39] = assay: Inhibition of biofilm formation in Klebsiella pneumoniae ATCC 700603 incubated for 24 hrs by crystal violet staining based assay; assay type: functional, organism-based
# Escherichia coli [40] = assay: Inhibition of biofilm formation in Escherichia coli ATCC 25922 incubated for 24 hrs by crystal violet staining based assay; assay type: functional, organism-based
# Bacillus subtilis = assay: Antibacterial activity against Bacillus subtilis ATCC 23857 incubated for 18 to 24 hrs by broth microdilution method; assay type: functional; details: time 18-24 hrs
structure (smiles),measurement,setting,value
CC(C)C[C@H](NC(=O)[C@H](CC(C)C)NC(=O)[C@H](Cc1ccc(OP(=O)(O)O)cc1)NC(=O)[C@H](CCCCN)NC(=O)[C@H](CC(C)C)NC(=O)[C@H](CCCNC(=N)N)NC(=O)[C@H](CCCCN)NC(=O)[C@H](Cc1ccc(-c2ccccc2)cc1)NC(=O)[C@H](CC(C)C)NC(=O)CN)C(N)=O (H-GL[Bip]KRLK[pY]LL-NH2),Activity,Escherichia coli [1],Active
same,fractional inhibitory concentration index (FICI),Klebsiella pneumoniae [2],0.563
same,MIC,Escherichia coli [3],8 µM
same,MIC,Pseudomonas aeruginosa [4],15 µM
same,CC50 at 1 h,[5],168 µM
same,LD50 at 336 h,[6],283 mg/kg
same,MIC,Acinetobacter baumannii,4 µM
same,inhibition,Staphylococcus aureus [7],Active
same,MIC,Klebsiella pneumoniae [8],8 µM
same,fractional inhibitory concentration index (FICI),Klebsiella pneumoniae [9],0.5
same,Activity,Escherichia coli [10],Active; Activity Comparable To Polymyxin B
same,Activity,Klebsiella pneumoniae [11],Dose-dependent-effect; Superior Activity Compared To Polymyxin B And Vancomycin
same,Activity,Cell membrane [12],Active
same,Activity,Cell membrane [13],Active
same,MIC,Staphylococcus aureus [14],8 µM
same,Activity,Cell membrane [15],Active
same,Activity,Cell membrane [16],Active; More Potent Than Polymyxin B And Vancomycin
same,Stability,Chymotrypsin,Stable
same,Activity,Cell membrane [17],Dose-dependent-effect; More Potent Than 1% Triton X-100 And Polymyxin B
same,inhibition,Klebsiella pneumoniae [18],Active
same,MIC,Staphylococcus aureus [19],8 µM
same,inhibition,Klebsiella pneumoniae [20],Active
same,Activity,Cell membrane [21],Active
same,inhibition,Pseudomonas aeruginosa [22],Dose-dependent-effect; Inhibition Comparable To Polymyxin B
same,Activity,Staphylococcus aureus [23],Active
same,Activity,Pseudomonas aeruginosa [24],Active
same,Activity,Klebsiella pneumoniae [25],inactive
same,MIC,Escherichia coli [26],8 µM
same,Activity,Klebsiella pneumoniae [27],Active
same,MIC,Klebsiella pneumoniae [28],8 µM
same,Activity,Pseudomonas aeruginosa [29],Dose-dependent-effect; Superior Activity Compared To Polymyxin B And Vancomycin
same,Activity,Cell membrane [30],Time-dependent-effect; More Potent Than 1% Triton X-100 And Polymyxin B
same,MIC,Staphylococcus aureus [31],8 µM
same,fractional inhibitory concentration index (FICI),Klebsiella pneumoniae [32],0.563
same,MIC,Escherichia coli [33],8 µM
same,fractional inhibitory concentration index (FICI),Klebsiella pneumoniae [34],0.563
same,Activity,Staphylococcus aureus [35],Dose-dependent-effect; Superior Activity Compared To Polymyxin B And Vancomycin
same,Activity,Cell membrane [36],Active
same,MHC,[37],> 256 µM
same,half-life,[38],8.51 h
same,inhibition,Klebsiella pneumoniae [39],Dose-dependent-effect; Inhibition Comparable To Polymyxin B
same,inhibition,Escherichia coli [40],Dose-dependent-effect; Inhibition Comparable To Polymyxin B
same,MIC,Bacillus subtilis,8 µM
CC(C)C[C@H](NC(=O)[C@H](CC(C)C)NC(=O)[C@H](Cc1ccc(O)cc1)NC(=O)[C@H](CCCCN)NC(=O)[C@H](CC(C)C)NC(=O)[C@H](CCCNC(=N)N)NC(=O)[C@H](CCCCN)NC(=O)[C@H](Cc1ccc(-c2ccccc2)cc1)NC(=O)[C@H](CC(C)C)NC(=O)CN)C(N)=O (H-GL[Bip]KRLKYLL-NH2),Activity,Escherichia coli [1],Active
same,fractional inhibitory concentration index (FICI),Klebsiella pneumoniae [2],0.563
same,MIC,Escherichia coli [3],8 µM
same,MIC,Pseudomonas aeruginosa [4],8 µM
same,CC50 at 1 h,[5],50.9 µM
same,LD50 at 336 h,[6],66.7 mg/kg
same,MIC,Acinetobacter baumannii,8 µM
same,inhibition,Staphylococcus aureus [7],Active
same,MIC,Klebsiella pneumoniae [8],8 µM
same,fractional inhibitory concentration index (FICI),Klebsiella pneumoniae [9],0.5
same,Activity,Escherichia coli [10],Active; Activity Comparable To Polymyxin B
same,Activity,Klebsiella pneumoniae [11],Dose-dependent-effect; Superior Activity Compared To Polymyxin B And Vancomycin
same,Activity,Cell membrane [12],Active
same,Activity,Cell membrane [13],Active
same,MIC,Staphylococcus aureus [14],8 µM
same,Activity,Cell membrane [15],Active
same,Activity,Cell membrane [16],Active; More Potent Than Polymyxin B And Vancomycin
same,Stability,Chymotrypsin,Stable
same,Activity,Cell membrane [17],Dose-dependent-effect; More Potent Than 1% Triton X-100 And Polymyxin B
same,inhibition,Klebsiella pneumoniae [18],Active
same,MIC,Staphylococcus aureus [19],8 µM
same,inhibition,Klebsiella pneumoniae [20],Active
same,Activity,Cell membrane [21],Active
same,inhibition,Pseudomonas aeruginosa [22],Dose-dependent-effect; Inhibition Comparable To Polymyxin B
same,Activity,Staphylococcus aureus [23],Active
same,Activity,Pseudomonas aeruginosa [24],Active
same,Activity,Klebsiella pneumoniae [25],inactive
same,MIC,Escherichia coli [26],8 µM
same,Activity,Klebsiella pneumoniae [27],Active
same,MIC,Klebsiella pneumoniae [28],8 µM
same,Activity,Pseudomonas aeruginosa [29],Dose-dependent-effect; Superior Activity Compared To Polymyxin B And Vancomycin
same,Activity,Cell membrane [30],Time-dependent-effect; More Potent Than 1% Triton X-100 And Polymyxin B
same,MIC,Staphylococcus aureus [31],8 µM
same,fractional inhibitory concentration index (FICI),Klebsiella pneumoniae [32],0.75
same,MIC,Escherichia coli [33],8 µM
same,fractional inhibitory concentration index (FICI),Klebsiella pneumoniae [34],0.563
same,Activity,Staphylococcus aureus [35],Dose-dependent-effect; Superior Activity Compared To Polymyxin B And Vancomycin
same,Activity,Cell membrane [36],Active
same,MHC,[37],27.38 µM
same,half-life,[38],1.36 h
same,inhibition,Klebsiella pneumoniae [39],Dose-dependent-effect; Inhibition Comparable To Polymyxin B
same,inhibition,Escherichia coli [40],Dose-dependent-effect; Inhibition Comparable To Polymyxin B
same,MIC,Bacillus subtilis,4 µM
